Experiments:
Format in all cases: in vivo, human
panel of volunteers [1] = test: Sensory testing for sparkling orange beverage; conditions: sparkling orange beverage, 250 ppm (mogroside V 250 mg [sic]), average normalized score, 10-point scale; for Licorice Aftertaste / Lingering Sweetness / Mouth Coating / Overall Off-Taste: aftertaste; for Delayed Sweetness / Sweetness: in-mouth
Method: (§1) A panel of volunteers evaluated siamenoside I for in-mouth attributes (sweetness, delayed sweetness, sourness, bitterness, global flavor intensity, thickness/body, and astringence) and aftertaste (AT) attribtues (lingering sweetness, overall off-taste intensity, licorice off-tast, bitterness off-taste, and mouth coating) on a 10-point scale. Two replicate sessions were conducted, with a 20 minute break between sessions. There was a 90 second delay between samples within a session. Panelists evaluated all samples in a first session and evaluated the samples again a second time in a second session. Control samples of Rebaudioside M (Reb M) were evaluated during all sessions as a control. Mogroside V was also evaluated and sensory data for mogroside V is provided.
(§2) Data analysis was performed using 2-way analysis of variance (ANOVA) with interaction using Tukey's HSD test. The data was normalized for each attribute according to average scores for Reb M.
A panel of volunteers evaluated a sparkling orange beverage containing siamenodie I for in-mouth attributes and aftertaste attributes according to the methods described in Example 1 above.
The average normalized in-mouth attributes for a sample of sparkling orange beverage containing siamenoside I was evaluated and the results are provided below.
The average normalized aftertaste attributes for a sample of sparkling orange beverage containing siamenoside I was evaluated and the results are provided below.

panel of volunteers [2] = test: Sensory testing for apple drink (panel, in-mouth and aftertaste attributes); parameters: key to Sweetness / Delayed Sweetness / Bitterness / Lingering Sweetness / Overall Off-Taste / Licorice Aftertaste / Bitterness Aftertaste / Mouth Coating: 10-point scale; normalized per attribute to average Reb M scores; conditions: 10-point scale; for Bitterness Aftertaste / Licorice Aftertaste / Lingering Sweetness / Overall Off-Taste / Mouth Coating: aftertaste; for Bitterness / Delayed Sweetness / Global Flavor Intensity / Sweetness / Thickness/Body: in-mouth, average normalized score
Method: as §1, §2
The average normalized in-mouth attributes for each sample of apple drink containing siamenoside I was evaluated below.
The average sweetness for each sample of apple drink containing siamenoside I was evaluated below.

panel of volunteers [3] = test: Sensory testing for lemon-lime carbonated soft drink; parameters: key to Sweetness / Delayed Sweetness / Bitterness / Lingering Sweetness / Overall Off-Taste / Licorice Aftertaste / Bitterness Aftertaste: 10-point scale; scores normalized to average Reb M scores; conditions: 600 ppm (mogroside V 600 mg [sic]), average normalized score, 10-point scale; for Bitterness Aftertaste / Licorice Aftertaste / Lingering Sweetness / Overall Off-Taste: aftertaste; for Bitterness / Delayed Sweetness / Global Flavor Intensity / Sweetness: in-mouth
Method: as §1, §2
A panel of volunteers evaluated the siamenoside I-containing lemon-lime carbonated soft drink for in-mouth attributes and aftertaste attributes according to the methods described in Example 1 above.
The average normalized in-mouth attributes for a sample of lemon-lime carbonated soft drink having […] was evaluated below.
The average normalized aftertaste attributes for a sample of lemon-lime carbonated soft drink having siamenoside I was evaluated below.

panel of volunteers [4] = test: Sensory testing for vanilla milk; conditions: average normalized score, 10-point scale; for Licorice Aftertaste / Lingering Sweetness / Mouth Coating / Overall Off-Taste: aftertaste; for Astringence / Delayed Sweetness / Fattiness / Sourness / Sweetness / Bitterness / Global Flavor Intensity: in-mouth
Method: as §1, §2
A panel of volunteers evaluated vanilla milk for in-mouth attributes and aftertaste attributes according to the methods described in Example 1 above.
The average normalized in-mouth attributes for each sample of vanilla milk was evaluated and the results are provided below.
The average normalized aftertaste attributes for each sample of vanilla milk containing siamenoside I was evaluated and the results are provided below.

[5] = 250 ppm (mogroside V 250 mg [sic])
[6] = 500 ppm (mogroside V 500 mg [sic])
[7] = 200 ppm (mogroside V 200 mg [sic])
[8] = 400 ppm (mogroside V 400 mg [sic])

SMILES: C=C1C[C@@]23CC[C@H]4[C@@](C)(CCC[C@@]4(C)C(=O)O[C@@H]4O[C@H](CO)[C@@H](O)[C@H](O[C@@H]5O[C@H](CO)[C@@H](O)[C@H](O)[C@H]5O)[C@H]4O[C@@H]4O[C@H](CO)[C@@H](O)[C@H](O)[C@H]4O)[C@@H]2CC[C@]1(O[C@@H]1O[C@H](CO)[C@@H](O)[C@H](O[C@@H]2O[C@H](CO)[C@@H](O)[C@H](O)[C@H]2O)[C@H]1O[C@@H]1O[C@H](CO)[C@@H](O)[C@H](O)[C@H]1O)C3 [Reb M, Rebaudioside M]
- Licorice Aftertaste (panel of volunteers [1]): 2.2
- Lingering Sweetness (panel of volunteers [1]): 3.9
- Mouth Coating (panel of volunteers [1]): 2.5
- Overall Off-Taste (panel of volunteers [1]): 3.3
- Delayed Sweetness (panel of volunteers [1]): 3.3
- Sweetness (panel of volunteers [1]): 5.8
- Bitterness Aftertaste (panel of volunteers [2]; [5]): 1.1
- Licorice Aftertaste (panel of volunteers [2]; [5]): 2.0
- Lingering Sweetness (panel of volunteers [2]; [5]): 3.7
- Overall Off-Taste (panel of volunteers [2]; [5]): 2.9
- Bitterness (panel of volunteers [2]; [5]): 1.4
- Delayed Sweetness (panel of volunteers [2]; [5]): 2.5
- Global Flavor Intensity (panel of volunteers [2]; [5]): 4.0
- Sweetness (panel of volunteers [2]; [5]): 4.9
- Thickness/Body (panel of volunteers [2]; [5]): 1.5
- Licorice Aftertaste (panel of volunteers [2]; [6]): 2.2
- Lingering Sweetness (panel of volunteers [2]; [6]): 4.4
- Mouth Coating (panel of volunteers [2]; [6]): 2.2
- Overall Off-Taste (panel of volunteers [2]; [6]): 3.1
- Bitterness (panel of volunteers [2]; [6]): 1.3
- Delayed Sweetness (panel of volunteers [2]; [6]): 3.0
- Global Flavor Intensity (panel of volunteers [2]; [6]): 4.7
- Sweetness (panel of volunteers [2]; [6]): 6.1
- Thickness/Body (panel of volunteers [2]; [6]): 1.9
- Bitterness Aftertaste (panel of volunteers [3]): 1.4
- Licorice Aftertaste (panel of volunteers [3]): 2.5
- Lingering Sweetness (panel of volunteers [3]): 4.3
- Overall Off-Taste (panel of volunteers [3]): 3.6
- Bitterness (panel of volunteers [3]): 1.9
- Delayed Sweetness (panel of volunteers [3]): 3.3
- Global Flavor Intensity (panel of volunteers [3]): 4.8
- Sweetness (panel of volunteers [3]): 6.0
- Licorice Aftertaste (panel of volunteers [4]; [7]): 0.8
- Lingering Sweetness (panel of volunteers [4]; [7]): 2.6
- Mouth Coating (panel of volunteers [4]; [7]): 3.1
- Overall Off-Taste (panel of volunteers [4]; [7]): 1.8
- Astringence (panel of volunteers [4]; [7]): 0.6
- Delayed Sweetness (panel of volunteers [4]; [7]): 1.7
- Fattiness (panel of volunteers [4]; [7]): 3.3
- Sourness (panel of volunteers [4]; [7]): 0.7
- Sweetness (panel of volunteers [4]; [7]): 4.9
- Licorice Aftertaste (panel of volunteers [4]; [8]): 1.3
- Lingering Sweetness (panel of volunteers [4]; [8]): 3.8
- Mouth Coating (panel of volunteers [4]; [8]): 0.7
- Overall Off-Taste (panel of volunteers [4]; [8]): 2.1
- Astringence (panel of volunteers [4]; [8]): 0.6
- Bitterness (panel of volunteers [4]; [8]): 0.8
- Delayed Sweetness (panel of volunteers [4]; [8]): 2.2
- Fattiness (panel of volunteers [4]; [8]): 3.8
- Global Flavor Intensity (panel of volunteers [4]; [8]): 4.6
- Sourness (panel of volunteers [4]; [8]): 0.7
- Sweetness (panel of volunteers [4]; [8]): 6.6

SMILES: C[C@H](CC[C@@H](O[C@@H]1O[C@H](CO[C@@H]2O[C@H](CO)[C@@H](O)[C@H](O)[C@H]2O)[C@@H](O)[C@H](O)[C@H]1O[C@@H]1O[C@H](CO)[C@@H](O)[C@H](O)[C@H]1O)C(C)(C)O)[C@H]1CC[C@@]2(C)[C@@H]3CC=C4[C@@H](CC[C@H](O[C@@H]5O[C@H](CO[C@@H]6O[C@H](CO)[C@@H](O)[C@H](O)[C@H]6O)[C@@H](O)[C@H](O)[C@H]5O)C4(C)C)[C@]3(C)[C@H](O)C[C@]12C [mogroside V]
- Licorice Aftertaste (panel of volunteers [1]): 2.2
- Lingering Sweetness (panel of volunteers [1]): 3.6
- Mouth Coating (panel of volunteers [1]): 2.8
- Overall Off-Taste (panel of volunteers [1]): 2.9
- Delayed Sweetness (panel of volunteers [1]): 4.2
- Sweetness (panel of volunteers [1]): 5.1
- Bitterness Aftertaste (panel of volunteers [2]; [5]): 1.3
- Licorice Aftertaste (panel of volunteers [2]; [5]): 2.3
- Lingering Sweetness (panel of volunteers [2]; [5]): 2.5
- Overall Off-Taste (panel of volunteers [2]; [5]): 3.4
- Bitterness (panel of volunteers [2]; [5]): 1.6
- Delayed Sweetness (panel of volunteers [2]; [5]): 2.5
- Global Flavor Intensity (panel of volunteers [2]; [5]): 3.0
- Sweetness (panel of volunteers [2]; [5]): 3.4
- Thickness/Body (panel of volunteers [2]; [5]): 1.3
- Licorice Aftertaste (panel of volunteers [2]; [6]): 2.0
- Lingering Sweetness (panel of volunteers [2]; [6]): 3.8
- Mouth Coating (panel of volunteers [2]; [6]): 2.1
- Overall Off-Taste (panel of volunteers [2]; [6]): 2.9
- Bitterness (panel of volunteers [2]; [6]): 1.3
- Delayed Sweetness (panel of volunteers [2]; [6]): 3.1
- Global Flavor Intensity (panel of volunteers [2]; [6]): 4.1
- Sweetness (panel of volunteers [2]; [6]): 5.2
- Thickness/Body (panel of volunteers [2]; [6]): 1.6
- Bitterness Aftertaste (panel of volunteers [3]): 1.6
- Licorice Aftertaste (panel of volunteers [3]): 2.3
- Lingering Sweetness (panel of volunteers [3]): 3.6
- Overall Off-Taste (panel of volunteers [3]): 3.7
- Bitterness (panel of volunteers [3]): 2.0
- Delayed Sweetness (panel of volunteers [3]): 3.4
- Global Flavor Intensity (panel of volunteers [3]): 3.9
- Sweetness (panel of volunteers [3]): 5.0
- Licorice Aftertaste (panel of volunteers [4]; [7]): 0.8
- Lingering Sweetness (panel of volunteers [4]; [7]): 2.5
- Mouth Coating (panel of volunteers [4]; [7]): 2.9
- Overall Off-Taste (panel of volunteers [4]; [7]): 1.6
- Astringence (panel of volunteers [4]; [7]): 0.5
- Delayed Sweetness (panel of volunteers [4]; [7]): 1.9
- Fattiness (panel of volunteers [4]; [7]): 3.2
- Sourness (panel of volunteers [4]; [7]): 1.0
- Sweetness (panel of volunteers [4]; [7]): 5.0
- Licorice Aftertaste (panel of volunteers [4]; [8]): 1.1
- Lingering Sweetness (panel of volunteers [4]; [8]): 3.5
- Mouth Coating (panel of volunteers [4]; [8]): 0.9
- Overall Off-Taste (panel of volunteers [4]; [8]): 2.2
- Astringence (panel of volunteers [4]; [8]): 0.3
- Bitterness (panel of volunteers [4]; [8]): 1.2
- Delayed Sweetness (panel of volunteers [4]; [8]): 2.0
- Fattiness (panel of volunteers [4]; [8]): 3.5
- Global Flavor Intensity (panel of volunteers [4]; [8]): 4.2
- Sourness (panel of volunteers [4]; [8]): 0.9
- Sweetness (panel of volunteers [4]; [8]): 6.3
